These results are taken from patent publication US9828389B2, “Tetrazolinone compounds and their use as pesticides” (SUMITOMO CHEMICAL COMPANY, LIMITED, priority 2012, dated 2017).

The first experiment relates to cotton aphid (Aphis gossypii). The experiment can be described thus: Cotton aphid control test, spray on infested cucumber. Type of experiment: in vivo. Conditions: 144 h, 20 mL sprayed on cucumber with 30 aphids, counted after 6 days. As to the method:
Cucumber (cv; Sagami-hanjiro-fushinari) was grown in a polyethylene cup until the first true leaf was developed. Thirty (30) heads of cotton aphid (Aphis gossypii) (including the adults and the larvae) was released onto the leaves of the […] and next day, the above-mentioned testing drug dilutions 20 mL were sprayed. […] Control value (%)={1−(Cb×Tai)/(Cai×Tb)}×100 wherein the symbols in the formula represent the following descriptions. Cb: Number of the insects before treatment in untreated area; Cai: Number of the insects at the time of the observation in untreated area; Tb: Number of the insects before treatment in treated area; Tai: Number of the insects at the time of the observation in treated area;
The term pest or weed control denotes the degree to which the test organism was suppressed or injured, in per cent. A lower pest or weed control goes with a weak effect. For `Cc1cc(-c2nn(C)c(Cl)c2C)ccc1OCc1c(-n2nnn(C)c2=O)cccc1C(F)(F)F` [Present compound 209, 1-{2-[2-methyl-4-(5-chloro-1,4-dimethyl-1H-pyrazol-3-yl)-phenoxymethyl]-3-trifluoromethyl-phenyl}-4-methyl-, 4-dihydrotetrazole-5-one], the pest or weed control at 500 ppm was ≥ 90%.
For the compound `COc1cccc(-n2nnn(C)c2=O)c1COc1ccc(-c2ccn(S(C)(=O)=O)n2)cc1C` [Present compound 112, 1-{3-methoxy-2-[2-methyl-4-(1-methanesulfonyl-1H-pyrazol-3-yl)-phenoxymethyl]-phenyl}-4-methyl-1,4-dihydrotetrazole-5-one], the pest or weed control at 500 ppm was ≥ 90%.
`CCc1cccc(-n2nnn(C)c2=O)c1COc1ccc(-n2nc(C)cc2C)cc1C` [Present compound 50, 1-{3-ethyl-2-[2-methyl-4-(3,5-dimethyl-pyrazol-1-yl)-phenoxymethyl]-phenyl}-4-methyl-1,4-dihydrotetrazole-5-one]: the pest or weed control at 500 ppm is ≥ 90%.
Same read-out and setting: then `Cc1cc(C)n(-c2ccc(OCc3c(Cl)cccc3-n3nnn(C)c3=O)cc2Cl)n1` [Present compound 11, 1-{3-chloro-2-[3-chloro-4-(3,5-dimethyl-pyrazol-1-yl)-phenoxymethyl]-phenyl}-4-methyl-1,4-dihydrotetrazole-5-one], with ≥ 90%; and `COc1cccc(-n2nnn(C)c2=O)c1COc1ccc(-c2nn(C)cc2C)cc1Cl` [Present compound 154, 1-{3-methoxy-2-[2-chloro-4-(1,4-dimethyl-1H-pyrazol-3-yl)-phenoxymethyl]-phenyl}-4-methyl-1,4-dihydrotetrazole-5-one], with ≥ 90%; and `CCn1ccc(-c2ccc(OCc3c(OC)cccc3-n3nnn(C)c3=O)c(C)c2)n1` [Present compound 87, 1-{3-methoxy-2-[2-methyl-4-(1-ethyl-1H-pyrazol-3-yl)-phenoxymethyl]-phenyl}-4-methyl-1,4-dihydrotetrazole-5-one], with ≥ 90%.
With `CCc1cccc(-n2nnn(C)c2=O)c1COc1ccc(-c2cc(C)n(C)n2)cc1C` [Present compound 59, 1-{3-ethyl-2-[2-methyl-4-(1,5-dimethyl-1H-pyrazol-3-yl)-phenoxymethyl]-phenyl}-4-methyl-1,4-dihydrotetrazole-5-one], the pest or weed control at 500 ppm was ≥ 90%.
For the compound `CCOc1cccc(-n2nnn(C)c2=O)c1COc1ccc(-n2cc(C)c(C)n2)cc1C` [Present compound 129, 1-{3-ethoxy-2-[2-methyl-4-(3,4-dimethyl-pyrazol-1-yl)-phenoxymethyl]-phenyl}-4-methyl-1,4-dihydrotetrazole-5-one], the pest or weed control at 500 ppm was ≥ 90%.
On to `Cc1cc(C)n(-c2ccc(OCc3c(Cl)cccc3-n3nnn(C)c3=O)c(Cl)c2)n1` [Present compound 9, 1-{3-chloro-2-[2-chloro-4-(3,5-dimethyl-pyrazol-1-yl)-phenoxymethyl]-phenyl}-4-methyl-1,4-dihydrotetrazole-5-one], for which the pest or weed control at 500 ppm was ≥ 90%.
With `CCc1cccc(-n2nnn(C)c2=O)c1COc1ccc(-c2nn(C)c(Cl)c2C)cc1C` [Present compound 206, 1-{3-ethyl-2-[2-methyl-4-(5-chloro-1,4-dimethyl-1H-pyrazol-3-yl)-phenoxymethyl]-phenyl}-4-methyl-1,4-dihydrotetrazole-5-one], the pest or weed control at 500 ppm was ≥ 90%.
Still for that read-out and setting: then `COc1cccc(-n2nnn(C)c2=O)c1COc1ccc(-c2cnn(C)c2)cc1C` [Present compound 68, 1-{3-methoxy-2-[2-methyl-4-(1-methyl-1H-pyrazole-4-yl)-phenoxymethyl]-phenyl}-4-methyl-1,4-dihydrotetrazole-5-one], with ≥ 90%; and `COc1cccc(-n2nnn(C)c2=O)c1COc1ccc(-c2cnn(CC(C)C)c2)cc1C` [Present compound 77, 1-{3-methoxy-2-[2-methyl-4-(1-isobutyl-1H-pyrazole-4-yl)-phenoxymethyl]-phenyl}-4-methyl-1,4-dihydrotetrazole-5-one], with ≥ 90%.
`CCOc1cccc(-n2nnn(C)c2=O)c1COc1ccc(-c2nn(C)c(Cl)c2C)cc1C` [Present compound 210, 1-{3-ethoxy-2-[2-methyl-4-(5-chloro-1,4-dimethyl-1H-pyrazol-3-yl)-phenoxymethyl]-phenyl}-4-methyl-1,4-dihydrotetrazole-5-one]: the pest or weed control at 500 ppm is ≥ 90%.
In the case of `CCc1cccc(-n2nnn(C)c2=O)c1COc1ccc(-n2cc(C)c(C)n2)cc1C` [Present compound 53, 1-{3-ethyl-2-[2-methyl-4-(3,4-dimethyl-pyrazol-1-yl)-phenoxymethyl]-phenyl}-4-methyl-1,4-dihydrotetrazole-5-one], the pest or weed control at 500 ppm was ≥ 90%.
For the compound `Cc1ccn(-c2ccc(OCc3c(C)cccc3-n3nnn(C)c3=O)c(C)c2)n1` [Present compound 22, 1-{3-methyl-2-[2-methyl-4-(3-methyl-pyrazol-1-yl)-phenoxymethyl]-phenyl}-4-methyl-1,4-dihydrotetrazole-5-one], the pest or weed control at 500 ppm is ≥ 90%.

Another experiment relates to wheat rust fungi (Puccinia recondita). The experiment can be described thus: Wheat rust control test, foliar spray on wheat. The class given is in vivo. Conditions: Comparative Test Example: wheat (cv; Shirogane), foliar spray 500 ppm, inoculated after 5 days, observed after 1+8 days. How it is done: The spores of wheat rust fungi (Puccinia recondita) were sprinkling-inoculated. After inoculation, the plants were placed under a dark and humid condition at 23° C. for 1 day and were then cultivated at 20° C. under lighting for 8 days and a lesion area was observed.
Turning to `Cc1cc(C)n(-c2ccc(OCc3ccccc3-n3nnn(C)c3=O)c(Cl)c2)n1` [control compound, 1-{2-{2-chloro-4-(3,5-dimethyl-pyrazole-1-yl)-phenoxymethyl}-phenyl}-4-methyl-1,4-dihydrotetrazole-5-one], the “lesion area compared to the lesion area in untreated plants” value is listed as ≥ 70%.
